Measured values published in patent US10662475B2, “Compositions and methods for the treatment and prevention of antipsychotic medication-induced weight gain” (Centre for Addiction and Mental Health, priority 2014, dated 2020).

Columns and labels:
TSPO = biological target: T1, TSPO (Mus musculus, UniProt P50637); settings: high-fat diet induced obese mice; cited from earlier work
T1 construct: host or cells: high-fat diet induced obese mice (in vivo)

[1] = for weight gain (% change from baseline weight): total sample, European ancestry subjects with schizophrenia or schizoaffective disorder, by antipsychotic, mean ± SD
Protocol: Our sample comprised 66 European ancestry subjects aged 18-60 years with schizophrenia or schizoaffective disorder according to Diagnostic and Statistical Manual of Mental Disorders, Third Edition, Revised, or Fourth Edition (DSM-IIIR or DSM-IV) criteria.
Patients with a history of treatment refractory schizophrenia or schizoaffective disorder, or intolerance to typical antipsychotics, were treated with clozapine for 6 weeks and assessed for response and weight gain. These patients had never received a second generation antipsychotic prior to enrollment in the study, and underwent a 7-14 day washout period where they received no antipsychotic medication prior to receiving clozapine.
All analyses were done using R version 2.15.1 statistical software (R Core Team, 2012), with the rms package. Categorical variables were compared across study centres using Pearson chi-square test and continuous variables were compared using ANOVA, unless the assumptions of these tests were violated in which case Fisher's exact test and the Kruskal-Wallis test were used. Linear regression was used to test for differences in weight gain (% change from baseline weight) between genotypic groups using additive genotypic model with adjustment for relevant covariates.

[2] = Antipsychotic-induced weight change, orexin receptor (HCRTR1/HCRTR2) SNP association study; type: in vivo, human; settings: Sample HYM n = 74, all on clozapine, 6 weeks
Source text: Written informed consent was obtained from all participants. […] Exclusion criteria for these studies included pregnancy, organic brain disorder, severe head injuries, previous medical conditions which required treatment and were not stable (Hepatitis C, HIV, Thyroid disorder or diabetes mellitus), substance dependence, clinically relevant mental retardation and severe personality disorder.
Genomic DNA was extracted from blood samples using the high-salt method (Lahiri and Nurnberger 1991). […] A total of 5 tagSNPs covering a 20 kb region including HCRTR1 (˜9.6 kb) and 28 tagSNPs covering 120 kb including HCRTR2 (˜108 kb) were included in this study.
Analysis of covariance (ANCOVA) was used to test association between genotype and weight change (%) from baseline as the dependent variable, genotypes as fixed factor and, baseline weight and duration of treatment as covariates. Corrections for multiple tests were calculated using Single Nucleotide Polymorphism Spectral Decomposition (SNPSpD, (Nyholt 2004)). Power calculations were performed using Quanto 1.2.4 (Gauderman and Morrison 2006). Assuming a minor allele frequency of 0.25 and a sample size of n=130, we had more than 80% power to detect a mean difference of 3.6% between carriers and non-carriers of the risk genotype in an additive or dominant model.

[3] = total sample N=128, patients treated with clozapine, risperidone, olanzapine or haloperidol
[4] = adjunct treatment, human studies; cited from earlier work
GLP-1 = settings: rat models; effects seem to occur after a longer treatment period; cited from earlier work

CCC(C)N(C)C(=O)c1cc2ccccc2c(-c2ccccc2Cl)n1 (centres unmarked) [PK1195]
lipid accumulation in the liver, free and LDL cholesterol, and blood glucose levels (TSPO): significantly lowered

CN1CCN(C2=Nc3cc(Cl)ccc3Nc3ccccc32)CC1 [clozapine]
Weight change ± SD (%) ([1]; Sample HYM n = 54, all on clozapine, 6 weeks): 3.84 ± 5.8% | weight gain (% change from baseline weight) [1]: 3.99%±5.8 | Weight gain <7%, n (%) [2]: 47 (63.5) n (%) | Weight gain ≥7%, n (%) [2]: 27 (36.5) n (%) | Weight change ([2]; mean ± SD): 3.76 ± 4.4 kg | Weight change (%) ([2]; mean ± SD): 5.35 ± 6.3% | weight gain [3]: highest weight gain

O=C(CCCN1CCC(O)(c2ccc(Cl)cc2)CC1)c1ccc(F)cc1 [haloperidol]
weight gain (% change from baseline weight) [1]: −4.17%±15.2

CC(=O)[C@H]1CC[C@H]2[C@@H]3CC=C4C[C@@H](O)CC[C@]4(C)[C@H]3CC[C@]12C [pregnenolone]
symptoms of schizophrenia [4]: improves symptoms of schizophrenia

OCCOCCN1CCN(C2=Nc3ccccc3Sc3ccccc32)CC1 [quetiapine]
GLP-1 levels (GLP-1): decrease GLP-1 levels
